Experimental data published in US9833497B2, “Human originated EGF domain proteins and use of the same” (CHENGDU SOURCEBIO LIMITED-LIABILITY COMPANY, priority 2013, dated 2017).

Experiments:
Assay type in all cases: cell-based
Pseudomonas aeruginosa = assay: MIC against Gram-negative bacteria: Pseudomonas aeruginosa; settings: for MIC P. aeruginosa / MIC (μg/mL) P. aeruginosa: 5×10^5 CFU/mL
Procedure, shortened: (§1)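 Antibacterial activity of purified human EGF domain proteins: two-fold concentration series, triplicate wells, LB broth, 5×10^5 CFU/mL bacteria, 37° C shaking incubation. The lowest concentration without growth defines the MIC.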

Moraxella catarrhalis = assay: MIC against Gram-negative bacteria: Moraxella catarrhalis; settings: for MIC M. catarrhalis / MIC (μg/mL) M. catarrhalis: 5×10^5 CFU/mL
Procedure, shortened: as §1

Serratia marcescens = assay: MIC against Gram-negative bacteria: Serratia marcescens; settings: for MIC S. marcescens / MIC (μg/mL) S. marcescens: 5×10^5 CFU/mL
Procedure, shortened: as §1

Proteus mirabilis = assay: MIC against Gram-negative bacteria: Proteus mirabilis; settings: for MIC P. mirabilis / MIC (μg/mL) P. mirabilis: 5×10^5 CFU/mL
Procedure, shortened: as §1

Klebsiella pneumonia = assay: MIC against Gram-negative bacteria: Klebsiella pneumonia; settings: for MIC K. pneumonia / MIC (μg/mL) K. pneumonia: 5×10^5 CFU/mL
Procedure, shortened: as §1

Enterobacter cloacae = assay: MIC against Gram-negative bacteria: Enterobacter cloacae; settings: for MIC E. cloacae / MIC (μg/mL) E. cloacae: 5×10^5 CFU/mL
Procedure, shortened: as §1

E. coli BL21 = assay: MIC against Gram-negative bacteria: E. coli BL21; settings: for MIC E. coli BL21 / MIC (μg/mL) E. coli BL21: 5×10^5 CFU/mL
Procedure, shortened: as §1

Aeromonas hydrophila = assay: MIC against Gram-negative bacteria: Aeromonas hydrophila; settings: for MIC A. hydrophila / MIC (μg/mL) A. hydrophila: 5×10^5 CFU/mL
Procedure, shortened: as §1

Citrobacter diversus = assay: MIC against Gram-negative bacteria: Citrobacter diversus; settings: for MIC C. diversus / MIC (μg/mL) C. diversus: 5×10^5 CFU/mL
Procedure, shortened: as §1

Proteus vulgaris = assay: MIC against Gram-negative bacteria: Proteus vulgaris; settings: for MIC P. vulgaris / MIC (μg/mL) P. vulgaris: 5×10^5 CFU/mL
Procedure, shortened: as §1

E. coli DH5α = assay: Antibacterial activity: MIC and growth curve against E. coli DH5α in 96-well plate; settings: minimal inhibitory concentration against E. coli DH5α; 96-well plate, 5×10^5 CFU/mL, 37° C., judged after 8 h
Procedure, shortened: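 MIC taken as lowest protein level with no bacterial growth, tracked by A600 every 30 min during 37 °C, 175 rpm culture. Two-fold protein series 50-12.5 μg/mL final, triplicate wells, against 5×10^5 CFU/mL of LB-washed mid-log cells.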

[1] = P. aeruginosa, 10 h cultivation at 37° C.
[2] = M. catarrhalis, 10 h cultivation at 37° C.
[3] = S. marcescens, 10 h cultivation at 37° C.
[4] = P. mirabilis, 10 h cultivation at 37° C.
[5] = K. pneumonia, 10 h cultivation at 37° C.
[6] = E. cloacae, 10 h cultivation at 37° C.
[7] = E. coli BL21, 10 h cultivation at 37° C.
[8] = A. hydrophila, 10 h cultivation at 37° C.
[9] = C. diversus, 10 h cultivation at 37° C.
[10] = P. vulgaris, 10 h cultivation at 37° C.
[11] = 10 h cultivation at 37° C., two-fold serial dilution

PRT1004 (LRPSCADSPCRNRATCQDSPQGPRCLCPTGYTGGSCQ; listed as Homo sapiens)
MIC (Pseudomonas aeruginosa; [1]): 50 µg/mL
MIC (Moraxella catarrhalis; [2]): 25 µg/mL
MIC (Serratia marcescens; [3]): 12.5 µg/mL
MIC (Proteus mirabilis; [4]): 50 µg/mL
MIC (Klebsiella pneumonia; [5]): 12.5 µg/mL
MIC (Enterobacter cloacae; [6]): 50 µg/mL
MIC (E. coli BL21; [7]): 100 µg/mL
MIC (Aeromonas hydrophila; [8]): 25 µg/mL
MIC (Citrobacter diversus; [9]): 12.5 µg/mL
MIC (Proteus vulgaris; [10]): 25 µg/mL
MIC (E. coli DH5α): 50 µg/mL

PRT624 (CRCSPLGAASAQCHENGTCVCRPGFEGYKCDRCHDNFFLTADGTHCQQC; listed as Homo sapiens)
MIC P. aeruginosa (Pseudomonas aeruginosa; 96-well plate, 37° C., 10 h): 25 µg/mL
MIC M. catarrhalis (Moraxella catarrhalis; 96-well plate, 37° C., 10 h): 12.5 µg/mL
MIC S. marcescens (Serratia marcescens; 96-well plate, 37° C., 10 h): 25 µg/mL
MIC P. mirabilis (Proteus mirabilis; 96-well plate, 37° C., 10 h): 25 µg/mL
MIC K. pneumonia (Klebsiella pneumonia; 96-well plate, 37° C., 10 h): 50 µg/mL
MIC E. cloacae (Enterobacter cloacae; 96-well plate, 37° C., 10 h): 25 µg/mL
MIC E. coli BL21 (E. coli BL21; 96-well plate, 37° C., 10 h): 100 µg/mL
MIC A. hydrophila (Aeromonas hydrophila; 96-well plate, 37° C., 10 h): 12.5 µg/mL
MIC C. diversus (Citrobacter diversus; 96-well plate, 37° C., 10 h): 25 µg/mL
MIC P. vulgaris (Proteus vulgaris; 96-well plate, 37° C., 10 h): 12.5 µg/mL
MIC (E. coli DH5α): 25 µg/mL

PRT110 (DIDECASSNGTLCAHICINTLGSYRCECREGYIREDDGKTCT; listed as Homo sapiens)
MIC (μg/mL) P. aeruginosa (Pseudomonas aeruginosa; Pseudomonas aeruginosa, 96-well plate, 37° C., 10 h): 25 µg/mL
MIC (μg/mL) M. catarrhalis (Moraxella catarrhalis; Moraxella catarrhalis, 96-well plate, 37° C., 10 h): 50 µg/mL
MIC (μg/mL) S. marcescens (Serratia marcescens; Serratia marcescens, 96-well plate, 37° C., 10 h): 12.5 µg/mL
MIC (μg/mL) P. mirabilis (Proteus mirabilis; Proteus mirabilis, 96-well plate, 37° C., 10 h): 12.5 µg/mL
MIC (μg/mL) K. pneumonia (Klebsiella pneumonia; Klebsiella pneumonia, 96-well plate, 37° C., 10 h): 50 µg/mL
MIC (μg/mL) E. cloacae (Enterobacter cloacae; Enterobacter cloacae, 96-well plate, 37° C., 10 h): 12.5 µg/mL
MIC (μg/mL) E. coli BL21 (E. coli BL21; E. coli BL21, 96-well plate, 37° C., 10 h): 12.5 µg/mL
MIC (μg/mL) A. hydrophila (Aeromonas hydrophila; Aeromonas hydrophila, 96-well plate, 37° C., 10 h): 50 µg/mL
MIC (μg/mL) C. diversus (Citrobacter diversus; Citrobacter diversus, 96-well plate, 37° C., 10 h): 12.5 µg/mL
MIC (μg/mL) P. vulgaris (Proteus vulgaris; Proteus vulgaris, 96-well plate, 37° C., 10 h): 12.5 µg/mL
MIC (E. coli DH5α): 25 µg/mL

PRT1154 (DGTACGYNTCRNGGECTVNGTTFSCRCLPDWAGNTCN; listed as Homo sapiens)
MIC P. aeruginosa (Pseudomonas aeruginosa; [11]): 50 µg/mL
MIC M. catarrhalis (Moraxella catarrhalis; [11]): 12.5 µg/mL
MIC S. marcescens (Serratia marcescens; [11]): 12.5 µg/mL
MIC P. mirabilis (Proteus mirabilis; [11]): 12.5 µg/mL
MIC K. pneumonia (Klebsiella pneumonia; [11]): 12.5 µg/mL
MIC E. cloacae (Enterobacter cloacae; [11]): 25 µg/mL
MIC E. coli BL21 (E. coli BL21; [11]): 12.5 µg/mL
MIC A. hydrophila (Aeromonas hydrophila; [11]): 100 µg/mL
MIC C. diversus (Citrobacter diversus; [11]): 12.5 µg/mL
MIC P. vulgaris (Proteus vulgaris; [11]): 12.5 µg/mL
MIC (E. coli DH5α): 50 µg/mL

PRT257 (CTDGHRGGCSEHANCLSTGLNTRRCECHAGYVGDGLQC; listed as Homo sapiens)
MIC (μg/mL) P. aeruginosa (Pseudomonas aeruginosa; [1]): 12.5 µg/mL
MIC (μg/mL) M. catarrhalis (Moraxella catarrhalis; [2]): 25 µg/mL
MIC (μg/mL) S. marcescens (Serratia marcescens; [3]): 12.5 µg/mL
MIC (μg/mL) P. mirabilis (Proteus mirabilis; [4]): 12.5 µg/mL
MIC (μg/mL) K. pneumonia (Klebsiella pneumonia; [5]): 25 µg/mL
MIC (μg/mL) E. cloacae (Enterobacter cloacae; [6]): 12.5 µg/mL
MIC (μg/mL) E. coli BL21 (E. coli BL21; [7]): 25 µg/mL
MIC (μg/mL) A. hydrophila (Aeromonas hydrophila; [8]): 25 µg/mL
MIC (μg/mL) C. diversus (Citrobacter diversus; [9]): 12.5 µg/mL
MIC (μg/mL) P. vulgaris (Proteus vulgaris; [10]): 12.5 µg/mL
MIC (E. coli DH5α): 12.5 µg/mL

PRT599 (CECDPDGTISGGICVSHSDPALGSVAGQCLCKENVEGAKCDQCKPNHYGLSATDPLGCQP; listed as Homo sapiens)
MIC P. aeruginosa (Pseudomonas aeruginosa; 96-well plate, 37° C., 10 h): 50 µg/mL
MIC M. catarrhalis (Moraxella catarrhalis; 96-well plate, 37° C., 10 h): 12.5 µg/mL
MIC S. marcescens (Serratia marcescens; 96-well plate, 37° C., 10 h): 50 µg/mL
MIC P. mirabilis (Proteus mirabilis; 96-well plate, 37° C., 10 h): 50 µg/mL
MIC K. pneumonia (Klebsiella pneumonia; 96-well plate, 37° C., 10 h): 12.5 µg/mL
MIC E. cloacae (Enterobacter cloacae; 96-well plate, 37° C., 10 h): 50 µg/mL
MIC E. coli BL21 (E. coli BL21; 96-well plate, 37° C., 10 h): 25 µg/mL
MIC A. hydrophila (Aeromonas hydrophila; 96-well plate, 37° C., 10 h): 12.5 µg/mL
MIC C. diversus (Citrobacter diversus; 96-well plate, 37° C., 10 h): 50 µg/mL
MIC P. vulgaris (Proteus vulgaris; 96-well plate, 37° C., 10 h): 12.5 µg/mL
MIC (E. coli DH5α): 12.5 µg/mL

PRT822 (VRAGCRHSGGCLNGGLCDPHTGRCLCPAGWTGDKCQ; listed as Homo sapiens)
MIC (μg/mL) P. aeruginosa (Pseudomonas aeruginosa; [1]): 50 µg/mL
MIC (μg/mL) M. catarrhalis (Moraxella catarrhalis; [2]): 12.5 µg/mL
MIC (μg/mL) S. marcescens (Serratia marcescens; [3]): 12.5 µg/mL
MIC (μg/mL) P. mirabilis (Proteus mirabilis; [4]): 25 µg/mL
MIC (μg/mL) K. pneumonia (Klebsiella pneumonia; [5]): 12.5 µg/mL
MIC (μg/mL) E. cloacae (Enterobacter cloacae; [6]): 50 µg/mL
MIC (μg/mL) E. coli BL21 (E. coli BL21; [7]): 25 µg/mL
MIC (μg/mL) A. hydrophila (Aeromonas hydrophila; [8]): 12.5 µg/mL
MIC (μg/mL) C. diversus (Citrobacter diversus; [9]): 12.5 µg/mL
MIC (μg/mL) P. vulgaris (Proteus vulgaris; [10]): 12.5 µg/mL
MIC (E. coli DH5α): 12.5 µg/mL
